Data published in patent US5155041A, “Culture of Bacillus subtilis” (Korea Research Institute of Chemical Technology, priority 1990, dated 1992).
≈ marks a conversion by molar mass, not a printed value. Like-named read-outs stand apart in the source and are kept apart here.

What was measured:
Cercospora kikuchi = experiment: Minimum inhibitory concentration, agar dilution; format: cell-based
Fusarium roseum = experiment: microbe, parasite or virus in culture; format: cell-based
Glomerella glycine = experiment: Minimum inhibitory concentration, agar dilution; format: cell-based
Phytophthora capsici = experiment: Minimum inhibitory concentration, agar dilution; format: cell-based
Phytophthora parasitica = experiment: Minimum inhibitory concentration, agar dilution; format: cell-based
Pyricularia oryzae = experiment: microbe, parasite or virus in culture; format: cell-based
Rhizoctonia solani = experiment: Minimum inhibitory concentration, agar dilution; format: cell-based
Rhizopus sp. = experiment: Minimum inhibitory concentration, agar dilution; format: cell-based
[1] = system: Asperillus fumigatus ATCC 164264; experiment: Minimum inhibitory concentration, agar dilution; format: cell-based
[2] = system: Cladosporium carrionii ATCC 1624; experiment: Minimum inhibitory concentration, agar dilution; format: cell-based
[3] = system: Coccidioides immitis ATCC 34020; experiment: microbe, parasite or virus in culture; format: cell-based
[4] = system: Epidermopyton floccosum ATCC 38486; experiment: Minimum inhibitory concentration, agar dilution; format: cell-based
[5] = system: Microsporum canis ATCC 11622; experiment: Minimum inhibitory concentration, agar dilution; format: cell-based
Microsporum gypseum = experiment: Minimum inhibitory concentration, agar dilution; format: cell-based
[6] = system: Sporothrix schenkii ATCC 10212; experiment: Minimum inhibitory concentration, agar dilution; format: cell-based
[7] = system: Trichophyton mentagrophytes ATCC 9533; experiment: Minimum inhibitory concentration, agar dilution; format: cell-based
Trichophyton ruburum = experiment: Minimum inhibitory concentration, agar dilution; format: cell-based
mice = conditions: mouse, in vivo, ip; cited from earlier work
Botrytis cinerea = experiment: Minimum inhibitory concentration, agar dilution
Fusarium oxysporum = experiment: Minimum inhibitory concentration, agar dilution
[8] = Phytophthora capsici, read-out: MIC
[9] = Rhizoctonia solani, read-out: MIC
[10] = Cercospora kikuchi, read-out: MIC
[11] = Glomerella glycine, read-out: MIC
[12] = Phytophthora nicotianae, Phytophthora parasitica, read-out: MIC
[13] = Asperillus fumigatus ATCC 164264, read-out: MIC
[14] = Cladophialophora carrionii, ATCC1624, Cladosporium carrionii ATCC 1624, read-out: MIC
[15] = Epidermopyton floccosum ATCC 38486, read-out: MIC
[16] = ATCC10212, Sporothrix schenkii ATCC 10212, read-out: MIC
[17] = ATCC9533, Trichophyton mentagrophytes ATCC 9533, read-out: MIC
[18] = Trichophyton ruburum, read-out: MIC
[19] = ATCC11622, Microsporum canis ATCC 11622, read-out: MIC
[20] = Nannizzia gypsea, Microsporum gypseum, read-out: MIC

| Structure (SMILES) | MIC (Fusarium roseum; Fusarium sambucinum) [mg/L] | MIC (Glomerella glycine) [mg/L] | MIC (Pyricularia oryzae) [mg/L] | MIC [1] [mg/L] | MIC ([3]; ATCC34020) [mg/L] | MIC [4] [mg/L] | MIC ([5]; Microsporum canis, ATCC11622) [mg/L] | MIC (Microsporum gypseum; Nannizzia gypsea) [mg/L] | MIC (Phytophthora capsici; [8]) [mg/L] | MIC (Rhizoctonia solani; [9]) [mg/L] | MIC (Cercospora kikuchi; [10]) [mg/L] | MIC (Glomerella glycine; [11]) [mg/L] | MIC (Phytophthora parasitica; [12]) [mg/L] | MIC (Rhizopus sp.; Rhizopus sp., read-out: MIC) [mg/L] | MIC [1, 13] [mg/L] | MIC [2, 14] [mg/L] | MIC [4, 15] [mg/L] | MIC [6, 16] [mg/L] | MIC [7, 17] [mg/L] | MIC (Trichophyton ruburum; [18]) [mg/L] | other results |
| --- | --- | --- | --- | --- | --- | --- | --- | --- | --- | --- | --- | --- | --- | --- | --- | --- | --- | --- | --- | --- | --- |
| C[C@@H]1[C@H](O)[C@@H](C)/C=C/C=C/C=C/C=C/C=C/C=C/C=C/[C@H](O[C@@H]2O[C@H](C)[C@@H](O)[C@H](N)[C@@H]2O)C[C@@H]2O[C@](O)(C[C@@H](O)C[C@@H](O)[C@H](O)CC[C@@H](O)C[C@@H](O)CC(=O)O[C@H]1C)C[C@H](O)[C@H]2C(=O)O [amphotericin B] | 6 (≈ 6.49 µM) | 25 (≈ 27.1 µM) | 0.2 (≈ 0.216 µM) | 1.5 (≈ 1.62 µM) | 0.4 (≈ 0.433 µM) | 0.4 (≈ 0.433 µM) | 1.5 (≈ 1.62 µM) | 0.8 (≈ 0.866 µM) |  |  |  |  |  |  |  |  |  |  |  |  | MIC (Cercospora kikuchi; Cercospora): 100 mg/L (≈ 108 µM); MIC (Phytophthora capsici; Phytophthora capsici): 25 mg/L (≈ 27.1 µM); MIC (Phytophthora parasitica; Phytophthora nicotianae): 50 mg/L (≈ 54.1 µM); MIC (Rhizoctonia solani; Rhizoctonia solani): 3 mg/L (≈ 3.25 µM); MIC (Rhizopus sp.; Rhizopus): 100 mg/L (≈ 108 µM); MIC ([2]; Cladophialophora carrionii, ATCC1624): 50 mg/L (≈ 54.1 µM); MIC ([6]; Sporothrix, ATCC10212): 50 mg/L (≈ 54.1 µM); MIC ([7]; Trichophyton mentagrophytes, ATCC9533): 0.8 mg/L (≈ 0.866 µM); MIC (Trichophyton ruburum; Trichophyton): 0.8 mg/L (≈ 0.866 µM); LD50 (mice): 88 mg/kg; MIC (Botrytis cinerea; Botrytis cinerea): 3 mg/L (≈ 3.25 µM); MIC (Fusarium oxysporum; Fusarium oxysporum): 50 mg/L (≈ 54.1 µM) |
| C[C@@H]1C[C@@H]([C@H](O)CC2CC(=O)NC(=O)C2)C(=O)[C@@H](C)C1 [cycloheximide] | 25 (≈ 88.9 µM) |  |  |  |  |  |  |  | 0.8 (≈ 2.84 µM) | 12 (≈ 42.7 µM) |  |  |  |  |  |  |  |  |  |  | MIC (Cercospora kikuchi; Cercospora, read-out: MIC): 100 mg/L (≈ 355 µM); MIC (Glomerella glycine; read-out: MIC): 25 mg/L (≈ 88.9 µM); MIC (Phytophthora parasitica; Phytophthora nicotianae, read-out: MIC): 1.5 mg/L (≈ 5.33 µM); MIC (Pyricularia oryzae; read-out: MIC): 3 mg/L (≈ 10.7 µM); MIC (Rhizopus sp.; Rhizopus, read-out: MIC): > 100 mg/L; MIC ([1]; read-out: MIC): 50 mg/L (≈ 178 µM); MIC ([2]; Cladophialophora carrionii, ATCC1624, read-out: MIC): > 100 mg/L; MIC ([3]; ATCC34020, read-out: MIC): > 100 mg/L; MIC ([4]; read-out: MIC): > 100 mg/L; MIC ([5]; Microsporum canis, ATCC11622, read-out: MIC): > 100 mg/L; MIC (Microsporum gypseum; Nannizzia gypsea, read-out: MIC): > 100 mg/L; MIC ([6]; Sporothrix, ATCC10212, read-out: MIC): > 100 mg/L; MIC ([7]; Trichophyton mentagrophytes, ATCC9533, read-out: MIC): > 100 mg/L; MIC (Trichophyton ruburum; Trichophyton, read-out: MIC): > 100 mg/L |
| COC1=CC(=O)C[C@@H](C)[C@]12Oc1c(Cl)c(OC)cc(OC)c1C2=O [griseofulvin] | > 100 |  | > 100 |  | > 100 |  | 6 (≈ 17 µM) | 3 (≈ 8.5 µM) | 100 (≈ 283 µM) | 100 (≈ 283 µM) | > 100 | > 100 | 25 (≈ 70.9 µM) | > 100 | > 100 | > 100 | 1.5 (≈ 4.25 µM) | > 100 | 3 (≈ 8.5 µM) | 1.5 (≈ 4.25 µM) |  |
| C[C@H]1O[C@H](O[C@H]2[C@H](O)[C@@H](O)[C@@H](O)[C@H](O)[C@@H]2O)[C@@H](N)C[C@@H]1NC(=N)C(=O)O [kasugamycin] | > 100 |  | 25 (≈ 65.9 µM) |  | > 100 |  |  |  | > 100 | > 100 | > 100 | > 100 | > 100 | > 100 | > 100 | > 100 | > 100 | > 100 | > 100 | > 100 | MIC [5, 19]: > 100 mg/L; MIC (Microsporum gypseum; [20]): > 100 mg/L |
| C[C@@H]1[C@H](O)[C@@H](C)/C=C/C=C/CC/C=C/C=C/C=C/C=C/C(O[C@H]2O[C@H](C)[C@@H](O)[C@H](N)[C@@H]2O)CC2O[C@](O)(CC(O)C(O)CCC(O)CC(O)CC(O)CC(=O)O[C@H]1C)CC(O)C2C(=O)O (stereo partly drawn) [nystatin] |  | 6 (≈ 6.48 µM) | 0.8 (≈ 0.864 µM) | 12 (≈ 13 µM) | 6 (≈ 6.48 µM) | 1.5 (≈ 1.62 µM) |  |  |  |  |  |  |  |  |  |  |  |  |  |  | MIC (Cercospora kikuchi): 12 mg/L (≈ 13 µM); MIC (Fusarium roseum; Fusarium roseum): 6 mg/L (≈ 6.48 µM); MIC (Phytophthora capsici): 100 mg/L (≈ 108 µM); MIC (Phytophthora parasitica): 100 mg/L (≈ 108 µM); MIC (Rhizoctonia solani): 1.5 mg/L (≈ 1.62 µM); MIC (Rhizopus sp.): 100 mg/L (≈ 108 µM); MIC [2]: 50 mg/L (≈ 54 µM); MIC [5]: 1.5 mg/L (≈ 1.62 µM); MIC (Microsporum gypseum): 3 mg/L (≈ 3.24 µM); MIC [6]: 25 mg/L (≈ 27 µM); MIC [7]: 3 mg/L (≈ 3.24 µM); MIC (Trichophyton ruburum): 3 mg/L (≈ 3.24 µM); LD50 (mice): ~ 200 mg/kg; MIC (Botrytis cinerea): 1.5 mg/L (≈ 1.62 µM); MIC (Fusarium oxysporum): 12 mg/L (≈ 13 µM) |
| NC(=O)OCC(O)C(O)C(N)C(=O)NC(C(=O)O)C1OC(n2cc(CO)c(=O)[nH]c2=O)C(O)C1O (stereo not drawn) [polyoxin B] | > 100 |  | > 100 |  | > 100 |  |  |  | > 100 | > 100 | > 100 | > 100 | > 100 | > 100 | > 100 | > 100 | > 100 | > 100 | > 100 | > 100 | MIC [5, 19]: > 100 mg/L; MIC (Microsporum gypseum; [20]): > 100 mg/L |
